The subject of assay [1] is L. lactis NZ9000 (pEmpty). The note with it: broth microdilution (Wiegand et al. 2008); samples in 0.05% acetic acid; strain with empty plasmid. Here is the method:
(§1) All samples were resuspended in 0.05% aqueous acetic acid solution and the peptide amount was quantified by HPLC according to Schmitt et al. ([Schmitt et al., 2019]). The indicator strains MW2-MRSA, Enterococcus faecium, Listeria monocytogenes, and Lactococcus lactis were first streaked on GM17 plate and cultured overnight. The peptide samples were diluted with 0.05% acetic acid to a concentration of 40–320 μM (depending on the estimated activity of the peptide and the strain tested). The MIC value test was performed according to [Wiegand et al. (2008)].
(§2) M. flavus was used as the indicator strain for the agar well diffusion assay, and 0.15 nmol of each sample was added to each well (Figure 3). […] Antimicrobial activity of all compounds was tested by growth inhibition assays against two clinically relevant Gram-positive pathogens, i.e., methicillin resistant S. aureus and vancomycin resistant E. faecium, as well as L. monocytogenes, and L. lactis. […] For this experiment, an activity test was performed against the NSR producing strain L. lactis NZ9000 (pNSR).

Assay [2] has as its system MW2-MRSA (Staphylococcus aureus MW2, methicillin resistant). Here is the method:
as §1, §2

Assay [3] deals with Enterococcus faecium LMG 16003 (vancomycin resistant, VRE). As to the method: as §1, §2
Assay [4] deals with Listeria monocytogenes LMG 10470. As to the method:
as §1, §2

The mark [5] stands for this setting: MW2- ( MW2, methicillin resistant).
The mark [6] stands for this setting: broth microdilution (Wiegand et al. 2008), samples in 0.05% acetic acid, quantified by HPLC.

In brackets after ≈: the same amount, converted by molar mass. Like-named read-outs stand apart in the source and are kept apart here. Non-standard residues stand in square brackets, D forms with d. Residues, ends and D or L forms follow the SMILES beside them. *: point of attachment. Oic = O=C(O)[C@@H]1C[C@@H]2CCCC[C@@H]2N1; Pent4ynoyl = C#CCCC(=O)* A value given as a limit tells only on which side of the number the result lay.

Turning to `C=C1NC(=O)[C@H]([C@@H](C)CC)NC(=O)[C@H](NC(=O)/C(=C/C)NC(=O)[C@@H](N)[C@@H](C)CC)CSC[C@@H](C(=O)N[C@H]2C(=O)N3CCC[C@H]3C(=O)NCC(=O)N[C@H](C(=O)N[C@@H](CCCCN)C(=O)NCCCn3cc(CCC(=O)N4[C@H](C(=O)N5[C@H](C(=O)N6[C@H](C(=O)N[C@@H](CCCCN)C(=O)N[C@@H](CCCCN)C(=O)N[C@@H](CCCCN)C(=O)O)C[C@@H]7CCCC[C@@H]76)C[C@@H]6CCCC[C@@H]65)C[C@@H]5CCCC[C@@H]54)nn3)CS[C@H]2C)NC(=O)[C@H](CC(C)C)NC1=O` [Nisin AB + O3K3], in assay [1], the “MIC value, L. lactis NZ9000 (pEmpty)” value is more than 40 μM.
With `C=C1NC(=O)[C@H]([C@@H](C)CC)NC(=O)[C@H](NC(=O)/C(=C/C)NC(=O)[C@@H](N)[C@@H](C)CC)CSC[C@@H](C(=O)N[C@H]2C(=O)N3CCC[C@H]3C(=O)NCC(=O)N[C@H](C(=O)N[C@@H](CCCCN)C(=O)NCCCn3cc(CCC(=O)N4[C@H](C(=O)N5[C@H](C(=O)N6[C@H](C(=O)O)C[C@@H]7CCCC[C@@H]76)C[C@@H]6CCCC[C@@H]65)C[C@@H]5CCCC[C@@H]54)nn3)CS[C@H]2C)NC(=O)[C@H](CC(C)C)NC1=O` [Nisin AB + O3], the “MIC value, L. lactis NZ9000 (pEmpty)” value in assay [1] is reported as more than 40 μM.
In the case of `C=C1NC(=O)[C@H]([C@@H](C)CC)NC(=O)[C@H](NC(=O)/C(=C/C)NC(=O)[C@@H](N)[C@@H](C)CC)CSC[C@@H](C(=O)N[C@H]2C(=O)N3CCC[C@H]3C(=O)NCC(=O)N[C@H](C(=O)N[C@@H](CCCCN)C(=O)NCCCn3cc(CCC(=O)N4[C@H](C(=O)N5[C@H](C(=O)N6[C@H](C(=O)N7[C@H](C(=O)N8[C@H](C(=O)N9[C@H](C(=O)O)C[C@@H]%10CCCC[C@@H]%109)C[C@@H]9CCCC[C@@H]98)C[C@@H]8CCCC[C@@H]87)C[C@@H]7CCCC[C@@H]76)C[C@@H]6CCCC[C@@H]65)C[C@@H]5CCCC[C@@H]54)nn3)CS[C@H]2C)NC(=O)[C@H](CC(C)C)NC1=O` [Nisin AB + O6], the “MIC value, L. lactis NZ9000 (pEmpty)” value in assay [1] is 20 μM.
With `C=C1NC(=O)[C@H]([C@@H](C)CC)NC(=O)[C@H](NC(=O)/C(=C/C)NC(=O)[C@@H](N)[C@@H](C)CC)CSC[C@@H](C(=O)N[C@H]2C(=O)N3CCC[C@H]3C(=O)NCC(=O)N[C@H](C(=O)N[C@@H](CCCCN)C(=O)NCCCn3cc(CCC(=O)N4[C@H](C(=O)N5[C@H](C(=O)N6[C@H](C(=O)N7[C@H](C(=O)N8[C@H](C(=O)N9[C@H](C(=O)N%10[C@H](C(=O)N%11[C@H](C(=O)N%12[C@H](C(=O)O)C[C@@H]%13CCCC[C@@H]%13%12)C[C@@H]%12CCCC[C@@H]%12%11)C[C@@H]%11CCCC[C@@H]%11%10)C[C@@H]%10CCCC[C@@H]%109)C[C@@H]9CCCC[C@@H]98)C[C@@H]8CCCC[C@@H]87)C[C@@H]7CCCC[C@@H]76)C[C@@H]6CCCC[C@@H]65)C[C@@H]5CCCC[C@@H]54)nn3)CS[C@H]2C)NC(=O)[C@H](CC(C)C)NC1=O` [Nisin AB + O9], the “MIC value, L. lactis NZ9000 (pEmpty)” value in assay [1] came out at 5.0 μM.
For the compound `C=C1NC(=O)[C@H]([C@@H](C)CC)NC(=O)[C@H](NC(=O)/C(=C/C)NC(=O)[C@@H](N)[C@@H](C)CC)CSC[C@@H](C(=O)N[C@H]2C(=O)N3CCC[C@H]3C(=O)NCC(=O)N[C@H](C(=O)N[C@@H](CCCCN)C(=O)N[C@H]3C(=O)NCC(=O)N[C@@H](C)C(=O)N[C@@H](CC(C)C)C(=O)N[C@@H](CCSC)C(=O)NCC(=O)N[C@H](C(=O)N[C@@H](CC(N)=O)C(=O)NCCCn4cc(CCC(=O)N5[C@H](C(=O)N6[C@H](C(=O)N7[C@H](C(=O)O)C[C@@H]8CCCC[C@@H]87)C[C@@H]7CCCC[C@@H]76)C[C@@H]6CCCC[C@@H]65)nn4)CS[C@H]3C)CS[C@H]2C)NC(=O)[C@H](CC(C)C)NC1=O` [Nisin ABC + O3], in assay [1], the “MIC value, L. lactis NZ9000 (pEmpty)” value worked out at 5.0 μM. Besides, the “MIC value, MW2-MRSA” value in assay [2] (setting [5]) is more than 80 µM. Further, the “MIC value, E. faecium” value in assay [3] (LMG 16003) was determined as 20 µM. Moreover, the “MIC value, L. monocytogenes” value in assay [4] (LMG 10470) is more than 80 µM.
`C=C1NC(=O)[C@H]([C@@H](C)CC)NC(=O)[C@H](NC(=O)/C(=C/C)NC(=O)[C@@H](N)[C@@H](C)CC)CSC[C@@H](C(=O)N[C@H]2C(=O)N3CCC[C@H]3C(=O)NCC(=O)N[C@H](C(=O)N[C@@H](CCCCN)C(=O)N[C@H]3C(=O)NCC(=O)N[C@@H](C)C(=O)N[C@@H](CC(C)C)C(=O)N[C@@H](CCSC)C(=O)NCC(=O)N[C@H](C(=O)N[C@@H](CC(N)=O)C(=O)NCCCn4cc(CCC(=O)N5[C@H](C(=O)N6[C@H](C(=O)N7[C@H](C(=O)N8[C@H](C(=O)N9[C@H](C(=O)N%10[C@H](C(=O)N%11[C@H](C(=O)N%12[C@H](C(=O)N%13[C@H](C(=O)O)C[C@@H]%14CCCC[C@@H]%14%13)C[C@@H]%13CCCC[C@@H]%13%12)C[C@@H]%12CCCC[C@@H]%12%11)C[C@@H]%11CCCC[C@@H]%11%10)C[C@@H]%10CCCC[C@@H]%109)C[C@@H]9CCCC[C@@H]98)C[C@@H]8CCCC[C@@H]87)C[C@@H]7CCCC[C@@H]76)C[C@@H]6CCCC[C@@H]65)nn4)CS[C@H]3C)CS[C@H]2C)NC(=O)[C@H](CC(C)C)NC1=O` [Nisin ABC + O9]: in assay [1], the “MIC value, L. lactis NZ9000 (pEmpty)” value was determined as 5.0 μM. Also, the “MIC value, MW2-MRSA” value in assay [2] (setting [5]) was more than 80 µM. For the same compound, the “MIC value, E. faecium” value in assay [3] (LMG 16003) was determined as 10 µM. The “MIC value, L. monocytogenes” value in assay [4] (LMG 10470) was 40 µM.
Regarding `C=C1NC(=O)[C@H]([C@@H](C)CC)NC(=O)[C@H](NC(=O)/C(=C/C)NC(=O)[C@@H](N)[C@@H](C)CC)CSC[C@@H](C(=O)N[C@H]2C(=O)N3CCC[C@H]3C(=O)NCC(=O)N[C@H](C(=O)N[C@@H](CCCCN)C(=O)N[C@H]3C(=O)NCC(=O)N[C@@H](C)C(=O)N[C@@H](CC(C)C)C(=O)N[C@@H](CCSC)C(=O)NCC(=O)N[C@H](C(=O)N[C@@H](CC(N)=O)C(=O)O)CS[C@H]3C)CS[C@H]2C)NC(=O)[C@H](CC(C)C)NC1=O` [Nisin ABC, reference compound], in assay [1], the “MIC value, L. lactis NZ9000 (pEmpty)” value is 5.0 μM. Further, the “MIC value, MW2-MRSA” value in assay [2] (setting [5]) stood at 40 µM (≈ 75.2 µg/mL). Besides, the “MIC value, E. faecium” value in assay [3] (LMG 16003) is 40 µM (≈ 75.2 µg/mL). Moreover, the “MIC value, L. monocytogenes” value in assay [4] (LMG 10470) was 40 µM (≈ 75.2 µg/mL).
For the compound `C#CCCC(=O)N1[C@H](C(=O)N2[C@H](C(=O)N3[C@H](C(=O)N[C@@H](CCCCN)C(=O)N[C@@H](CCCCN)C(=O)N[C@@H](CCCCN)C(=O)O)C[C@@H]4CCCC[C@@H]43)C[C@@H]3CCCC[C@@H]32)C[C@@H]2CCCC[C@@H]21` [O3K3] (Pent4ynoyl-[Oic][Oic][Oic]KKK-OH), the “MIC value, L. lactis NZ9000 (pEmpty)” value in assay [1] is more than 160 μM. For the same compound, the “MIC value, MW2-MRSA” value in assay [2] (setting [5]) is more than 160 µM. The “MIC value, E. faecium” value in assay [3] (LMG 16003) is more than 160 µM. In addition, the “MIC value, L. monocytogenes” value in assay [4] (LMG 10470) is more than 160 µM.
Turning to `C#CCCC(=O)N1[C@H](C(=O)N2[C@H](C(=O)N3[C@H](C(=O)O)C[C@@H]4CCCC[C@@H]43)C[C@@H]3CCCC[C@@H]32)C[C@@H]2CCCC[C@@H]21` [O3], the “MIC value, MW2-MRSA” value in assay [2] (setting [5]) is more than 320 µM. The “MIC value, E. faecium” value in assay [3] (LMG 16003) was more than 320 µM. Also, the “MIC value, L. monocytogenes” value in assay [4] (LMG 10470) is more than 320 µM.
`C#CCCC(=O)N1[C@H](C(=O)N2[C@H](C(=O)N3[C@H](C(=O)N4[C@H](C(=O)N5[C@H](C(=O)N6[C@H](C(=O)N[C@@H](CCCCN)C(=O)N[C@@H](CCCCN)C(=O)N[C@@H](CCCCN)C(=O)O)C[C@@H]7CCCC[C@@H]76)C[C@@H]6CCCC[C@@H]65)C[C@@H]5CCCC[C@@H]54)C[C@@H]4CCCC[C@@H]43)C[C@@H]3CCCC[C@@H]32)C[C@@H]2CCCC[C@@H]21` [O6K3] (Pent4ynoyl-[Oic][Oic][Oic][Oic][Oic][Oic]KKK-OH): the “MIC value, L. lactis NZ9000 (pEmpty)” value in assay [1] is more than 80 μM. The “MIC value, MW2-MRSA” value in assay [2] (setting [6]) is more than 80 µM. Besides, in assay [3] (setting [6]), the “MIC value, E. faecium” value was more than 80 µM. Besides, the “MIC value, L. monocytogenes” value in assay [4] (setting [6]) was more than 80 µM.
For the compound `C#CCCC(=O)N1[C@H](C(=O)N2[C@H](C(=O)N3[C@H](C(=O)N4[C@H](C(=O)N5[C@H](C(=O)N6[C@H](C(=O)O)C[C@@H]7CCCC[C@@H]76)C[C@@H]6CCCC[C@@H]65)C[C@@H]5CCCC[C@@H]54)C[C@@H]4CCCC[C@@H]43)C[C@@H]3CCCC[C@@H]32)C[C@@H]2CCCC[C@@H]21` [O6] (Pent4ynoyl-[Oic][Oic][Oic][Oic][Oic][Oic]-OH), the “MIC value, MW2-MRSA” value in assay [2] (setting [5]) is more than 320 µM. Further, the “MIC value, E. faecium” value in assay [3] (LMG 16003) was more than 320 µM. For the same compound, in assay [4] (LMG 10470), the “MIC value, L. monocytogenes” value is more than 320 µM.
For the compound `C#CCCC(=O)N1[C@H](C(=O)N2[C@H](C(=O)N3[C@H](C(=O)N4[C@H](C(=O)N5[C@H](C(=O)N6[C@H](C(=O)N7[C@H](C(=O)N8[C@H](C(=O)N9[C@H](C(=O)O)C[C@@H]%10CCCC[C@@H]%109)C[C@@H]9CCCC[C@@H]98)C[C@@H]8CCCC[C@@H]87)C[C@@H]7CCCC[C@@H]76)C[C@@H]6CCCC[C@@H]65)C[C@@H]5CCCC[C@@H]54)C[C@@H]4CCCC[C@@H]43)C[C@@H]3CCCC[C@@H]32)C[C@@H]2CCCC[C@@H]21` [O9, Pentynyl-(Oic)9-OH] (Pent4ynoyl-[Oic][Oic][Oic][Oic][Oic][Oic][Oic][Oic][Oic]-OH), the “MIC value, MW2-MRSA” value in assay [2] (setting [5]) was more than 320 µM. For the same compound, the “MIC value, E. faecium” value in assay [3] (LMG 16003) was more than 320 µM. For the same compound, the “MIC value, L. monocytogenes” value in assay [4] (LMG 10470) was more than 320 µM.

For the origin of these results see publication PMC7715017, “Conjugation of Synthetic Polyproline Moietes to Lipid II Binding Fragments of Nisin Yields Active and Stable Antimicrobials” (Frontiers in Microbiology, 2020).
